{
  "source": "paper PMC7178866",
  "about": "“In vitro inhibitory effects of ganoderic acid A on human liver cytochrome P450 enzymes” (Pharmaceutical Biology, 2020)",
  "key": {"CYP2C19": {"system": "T1, CYP2C19", "T1 construct": "from tissue; host or cells: human liver microsomes", "assay": "Inhibition of CYP2C19 (S-mephenytoin 4-hydroxylation) in pooled human liver microsomes", "type": "in vitro ADME", "settings": "GAA 100 μM; pooled HLM", "experimental": "(§1) All incubations were performed in triplicate, and the mean values were utilized. The typical incubation systems contained 100 mM potassium phosphate buffer (pH 7.4), NADPH generating system (1 mM NADP^+, 10 mM glucose-6-phosphate, 1 U/mL of glucose-6-phosphate dehydrogenase, and 4 mM MgCl2), the appropriate concentration of HLMs, a corresponding probe substrate and hispidulin (or positive inhibitor for different probe reactions) in a final volume of 200 μL.\n(§2) The concentration of GAA was 100 μM, and the positive inhibitor concentrations were as follows: 10 μM furafylline for CYP1A2, 1 μM ketoconazole for CYP3A4, 10 μM tranylcypromine for CYP2A6, 50 μM clomethiazole for CYP2E1, 10 μM quinidine for CYP2D6, 10 μM sulfaphenazole for CYP2C9, 50 μM tranylcypromine for CYP2C19, 5 μM montelukast for CYP2C8. Probe substrates, positive inhibitors (except for dextromethorphan and quinidine, which were dissolved in water) and GAA were dissolved in methanol, with a final concentration of 1% (v/v), and 1% neat methanol was added to the incubations without inhibitor. […] The instrument used in this study was Agilent 1260 series instrument with DAD and FLD detector, and the quantitative assay for the corresponding metabolites was performed as previously reported (Lang et al. [2017]; Zhang et al. [2017]). […]"}, "CYP2E1 [1]": {"biological_target": "T2, CYP2E1 (Homo sapiens, UniProt P05181)", "T2 construct": "CYP2E1 catalyzed reactions (chlorzoxazone 6-hydroxylation) in pooled HLM; from tissue; host or cells: pooled human liver microsomes", "T2 sequence (P05181 whole entry)": "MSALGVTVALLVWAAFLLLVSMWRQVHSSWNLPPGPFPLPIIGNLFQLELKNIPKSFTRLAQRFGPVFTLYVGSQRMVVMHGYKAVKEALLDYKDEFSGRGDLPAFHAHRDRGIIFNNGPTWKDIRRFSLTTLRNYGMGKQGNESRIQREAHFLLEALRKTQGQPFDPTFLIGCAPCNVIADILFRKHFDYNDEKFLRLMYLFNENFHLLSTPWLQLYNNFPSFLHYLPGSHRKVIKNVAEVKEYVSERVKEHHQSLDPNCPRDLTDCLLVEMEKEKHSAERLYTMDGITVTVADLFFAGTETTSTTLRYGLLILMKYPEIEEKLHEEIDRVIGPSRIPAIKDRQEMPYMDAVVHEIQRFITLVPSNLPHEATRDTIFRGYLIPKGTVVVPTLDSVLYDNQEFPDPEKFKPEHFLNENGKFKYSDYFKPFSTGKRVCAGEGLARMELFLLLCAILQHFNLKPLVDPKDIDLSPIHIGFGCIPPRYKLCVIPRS", "assay": "Time-dependent inhibition study, CYP2E1 in human liver microsomes", "type": "in vitro ADME", "settings": "GAA 20 μM pre-incubated with HLMs and NADPH for 30 min", "experimental": "(§3) To determine whether GAA could inhibit the activity of CYP3A4, 2D6, and 2E1 in a time-dependent manner, GAA (20 μM) was pre-incubated with HLMs (1 mg/mL) in the presence of an NADPH-generating system for 30 min at 37 °C. After incubation, an aliquot (20 μL) was transferred to another incubation tube (final volume 200 μL) containing an NADPH-generating system and probe substrates whose final concentrations were approximate to Km. Then, further incubations were performed to measure the residual activity. After being incubated for 10 and 30 min, the reactions were terminated by adding a 100 μL acetonitrile internal standard mix and then placed on ice; the corresponding metabolites were determined by HPLC."}, "CYP2C8": {"system": "T3, CYP2C8", "T3 construct": "from tissue; host or cells: human liver microsomes", "assay": "Inhibition of CYP2C8 (paclitaxel 6α-hydroxylation) in pooled human liver microsomes", "type": "in vitro ADME", "settings": "GAA 100 μM; pooled HLM", "experimental": "as §1, §2"}, "CYP2D6 [2]": {"biological_target": "T4, CYP2D6 (Homo sapiens, UniProt P10635)", "T4 construct": "from tissue; host or cells: pooled human liver microsomes", "T4 sequence (P10635 whole entry)": "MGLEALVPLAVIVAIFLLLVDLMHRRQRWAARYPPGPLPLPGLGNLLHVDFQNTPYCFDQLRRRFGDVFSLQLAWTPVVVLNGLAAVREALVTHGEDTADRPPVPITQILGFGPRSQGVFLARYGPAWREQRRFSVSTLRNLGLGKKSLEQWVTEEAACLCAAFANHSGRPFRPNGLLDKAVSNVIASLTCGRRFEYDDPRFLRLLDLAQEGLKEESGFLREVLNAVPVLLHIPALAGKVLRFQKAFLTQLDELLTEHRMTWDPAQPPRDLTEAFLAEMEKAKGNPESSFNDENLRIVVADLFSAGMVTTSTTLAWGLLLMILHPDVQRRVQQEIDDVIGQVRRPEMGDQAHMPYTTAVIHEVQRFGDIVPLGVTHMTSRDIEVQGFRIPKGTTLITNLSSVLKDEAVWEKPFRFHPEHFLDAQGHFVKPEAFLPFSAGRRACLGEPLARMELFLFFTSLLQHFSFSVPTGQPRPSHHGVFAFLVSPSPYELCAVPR", "assay": "Inhibition of CYP2D6 (dextromethorphan O-demethylation) in pooled human liver microsomes", "type": "in vitro ADME", "experimental": "as §1\n(§4) The concentration of GAA was 100 μM, and the positive inhibitor concentrations were as follows: 10 μM furafylline for CYP1A2, 1 μM ketoconazole for CYP3A4, 10 μM tranylcypromine for CYP2A6, 50 μM clomethiazole for CYP2E1, 10 μM quinidine for CYP2D6, 10 μM sulfaphenazole for CYP2C9, 50 μM tranylcypromine for CYP2C19, 5 μM montelukast for CYP2C8. Probe substrates, positive inhibitors (except for dextromethorphan and quinidine, which were dissolved in water) and GAA were dissolved in methanol, with a final concentration of 1% (v/v), and 1% neat methanol was added to the incubations without inhibitor. There was a 3 min preincubation period (at 37 °C) before the reaction was initiated by adding an NADPH-generating system. The reaction was terminated by adding a 100 μL acetonitrile (10% trichloroacetic acid for CYP2A6) internal standard mix, and the solution was placed on ice. The mixture was centrifuged at 12,000 rpm for 10 min, and an aliquot (50 μL) of supernatant was transferred for HPLC analysis. The instrument used in this study was Agilent 1260 series instrument with DAD and FLD detector, and the quantitative assay for the corresponding metabolites was performed as previously reported (Lang et al. [2017]; Zhang et al. [2017]).\n(§5) GAA (100 μM) was used to initially screen for its direct inhibitory effects towards different human CYP isoforms. […]\n(§6) The enzyme kinetic parameters for the probe reaction were estimated from the best fit line, using least-squares linear regression of the inverse substrate concentration versus the inverse velocity (Lineweaver-Burk plots), and the mean values were used to calculate Vmax and Km. Inhibition data from the experiments that were conducted using multiple compound concentrations were represented by Dixon plots, and inhibition constant (Ki) values were calculated using non-linear regression according to the following equation: v=(VmaxS)/(Km(1+I/Ki)+S), where I is the concentration of the compound, Ki is the inhibition constant, S is the concentration of the substrate, and Km is the substrate concentration at half the maximum velocity (Vmax) of the reaction. The mechanism of the inhibition was assessed using the Lineweaver-Burk plots and the enzyme inhibition models. […]"}, "CYP2A6": {"system": "T5, CYP2A6", "T5 construct": "from tissue; host or cells: human liver microsomes", "assay": "Inhibition of CYP2A6 (coumarin 7-hydroxylation) in pooled human liver microsomes", "type": "in vitro ADME", "settings": "GAA 100 μM; pooled HLM", "experimental": "as §1, §2"}, "CYP3A4 [3]": {"biological_target": "T6, CYP3A4 (Homo sapiens, UniProt P08684)", "T6 construct": "CYP3A4 catalyzed reactions (testosterone 6β-hydroxylation) in pooled HLM; from tissue; host or cells: pooled human liver microsomes", "T6 sequence (P08684 whole entry)": "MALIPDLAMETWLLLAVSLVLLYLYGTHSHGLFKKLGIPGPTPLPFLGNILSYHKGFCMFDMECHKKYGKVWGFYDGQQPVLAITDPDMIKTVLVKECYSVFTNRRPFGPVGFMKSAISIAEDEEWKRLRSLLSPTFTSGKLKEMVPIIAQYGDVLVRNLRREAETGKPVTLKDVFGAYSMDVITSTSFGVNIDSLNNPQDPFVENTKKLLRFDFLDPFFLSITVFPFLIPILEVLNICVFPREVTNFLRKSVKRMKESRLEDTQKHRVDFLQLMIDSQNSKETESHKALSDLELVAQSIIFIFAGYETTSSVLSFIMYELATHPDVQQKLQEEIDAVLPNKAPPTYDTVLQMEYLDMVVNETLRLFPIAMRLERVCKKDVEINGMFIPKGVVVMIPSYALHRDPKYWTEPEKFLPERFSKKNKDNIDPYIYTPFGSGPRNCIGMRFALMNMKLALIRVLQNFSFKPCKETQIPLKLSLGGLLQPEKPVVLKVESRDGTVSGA", "assay": "Inhibition of CYP3A4 (testosterone 6β-hydroxylation) in pooled human liver microsomes", "type": "in vitro ADME", "experimental": "as §1, §4, §5, §6"}, "CYP3A4 [4]": {"biological_target": "T6, CYP3A4", "assay": "Time-dependent inhibition study, CYP3A4 in human liver microsomes", "type": "in vitro ADME", "experimental": "as §3\nTo determine the KI and Kinact values for the inactivation of CYP3A4, the incubations were conducted using higher probe substrate concentrations (approximately 4-fold Km values) and various concentrations of GAA (0–50 μM) after different preincubation times (0–30 min), with a two-step incubation scheme, as described above."}, "CYP2D6 [5]": {"biological_target": "T4, CYP2D6", "assay": "Time-dependent inhibition study, CYP2D6 in human liver microsomes", "type": "in vitro ADME", "settings": "GAA 20 μM pre-incubated with HLMs and NADPH for 30 min", "experimental": "as §3"}, "CYP2C9": {"system": "T7, CYP2C9", "T7 construct": "from tissue; host or cells: human liver microsomes", "assay": "Inhibition of CYP2C9 (diclofenac 4′-hydroxylation) in pooled human liver microsomes", "type": "in vitro ADME", "settings": "GAA 100 μM; pooled HLM", "experimental": "as §1, §2"}, "[6]": {"set-up": "method as in Teekachunhatean et al. [2012]; Tseng et al. [2014]", "settings": "after oral administration of 3000 mg Lingzhi; ref Teekachunhatean et al. [2012]; Tseng et al. [2014]; cited from earlier work"}, "CYP2E1 [7]": {"biological_target": "T2, CYP2E1", "assay": "Inhibition of CYP2E1 (chlorzoxazone 6-hydroxylation) in pooled human liver microsomes", "type": "in vitro ADME", "experimental": "as §1, §4, §5, §6"}, "CYP1A2": {"system": "T8, CYP1A2", "T8 construct": "to investigate the effects of GAA on different CYP isoforms in HLM; from tissue; host or cells: human liver microsomes", "assay": "Inhibition of CYP1A2 (phenacetin O-deethylation) in pooled human liver microsomes", "type": "in vitro ADME", "settings": "GAA 100 μM; pooled HLM", "experimental": "as §1, §2"}},
  "data": [
    {"smiles": "C[C@H](CC(=O)C[C@@H](C)[C@H]1C[C@H](O)[C@@]2(C)C3=C(C(=O)C[C@]12C)[C@@]1(C)CCC(=O)C(C)(C)[C@@H]1C[C@@H]3O)C(=O)O", "note": "[GAA, Ganoderic acid A]", "values": [
      {"measurement": "effect on the activity of CYP2C19", "setting": "CYP2C19", "result": "did not exert effect"},
      {"measurement": "time dependence of inhibition of CYP2E1", "setting": "CYP2E1 [1]", "result": "stable with incubation time"},
      {"measurement": "effect on the activity of CYP2C8", "setting": "CYP2C8", "result": "did not exert effect"},
      {"measurement": "IC50", "setting": "CYP2D6 [2]", "result": 21.8, "unit": "µM"},
      {"measurement": "Ki", "setting": "CYP2D6 [2]", "result": 10.1, "unit": "µM"},
      {"measurement": "activity of CYP2D6, % of negative control", "setting": "CYP2D6 [2]; GAA 100 μM, pooled HLM, dextromethorphan O-demethylation, remaining activity", "result": 18.2, "unit": "%"},
      {"measurement": "inhibition model of CYP2D6", "setting": "CYP2D6 [2]; Lineweaver-Burk plots", "result": "competitively"},
      {"measurement": "effect on the activity of CYP2A6", "setting": "CYP2A6", "result": "did not exert effect"},
      {"measurement": "IC50", "setting": "CYP3A4 [3]", "result": 15, "unit": "µM"},
      {"measurement": "Ki", "setting": "CYP3A4 [3]", "result": 7.16, "unit": "µM"},
      {"measurement": "activity of CYP3A4, % of negative control", "setting": "CYP3A4 [3]; GAA 100 μM, pooled HLM, testosterone 6β-hydroxylation, remaining activity", "result": 14.6, "unit": "%"},
      {"measurement": "inhibition model of CYP3A4", "setting": "CYP3A4 [3]; Lineweaver-Burk plots", "result": "non-competitive"},
      {"measurement": "time dependence of inhibition of CYP3A4", "setting": "CYP3A4 [4]; GAA 20 μM pre-incubated with HLMs and NADPH for 30 min", "result": "time-dependent"},
      {"measurement": "CYP3A4 inactivated every minute", "setting": "CYP3A4 [4]; concluded from the value of Kinact, GAA incubated with HLM", "result": "about 4.8%"},
      {"measurement": "time dependence of inhibition of CYP2D6", "setting": "CYP2D6 [5]", "result": "stable with incubation time"},
      {"measurement": "effect on the activity of CYP2C9", "setting": "CYP2C9", "result": "did not exert effect"},
      {"measurement": "maximum concentration in plasma of GAA", "setting": "[6]", "result": "2.24 to 10.99", "unit": "ng/mL"},
      {"measurement": "IC50", "setting": "CYP2E1 [7]", "result": 28.3, "unit": "µM"},
      {"measurement": "Ki", "setting": "CYP2E1 [7]", "result": 13.4, "unit": "µM"},
      {"measurement": "activity of CYP2E1, % of negative control", "setting": "CYP2E1 [7]; GAA 100 μM, pooled HLM, chlorzoxazone 6-hydroxylation, remaining activity", "result": 27.7, "unit": "%"},
      {"measurement": "inhibition model of CYP2E1", "setting": "CYP2E1 [7]; Lineweaver-Burk plots", "result": "competitively"},
      {"measurement": "effect on the activity of CYP1A2", "setting": "CYP1A2", "result": "did not exert effect"}
    ]}
  ]
}
